In ChEMBL document CHEMBL1773024, “New 29-nor-cycloartanes with a 3,4-seco- and a novel 2,3-seco-structure from the leaves of Sinocalycanthus chinensis” (Bioorg Med Chem, 2011):
In brackets after ≈: the same amount, converted by molar mass.

Tests used:
K562 [1] = test: Cytotoxicity against human K562 cells after 6 hrs by MTT assay; type: functional, cell-based; conditions: K562, 6 h
[2] = Cytotoxicity against human colchicine-resistant KB-C2 cells after 48 hrs by MTT assay; conditions: KB-C2, 48 h
[3] = Cytotoxicity against human KB-C2 cells after 48 hrs by MTT assay; conditions: KB-C2, 48 h
K562 [4] = test: Cytotoxicity against human doxorubicin-resistant K562 cells after 6 hrs by MTT assay; type: functional, cell-based; conditions: K562, 6 h
MCF7 = test: Cytotoxicity against human MCF7 cells after 48 hrs by MTT assay; conditions: MCF7, 48 h
KB = test: Cytotoxicity against human KB cells after 48 hrs by MTT assay

Row | Structure (SMILES) | IC50 (K562 [1]) [µg/mL] | IC50 [2] [µg/mL] | IC50 [3] [µg/mL] | IC50 (K562 [4]) [µg/mL] | IC50 (MCF7) [µg/mL] | IC50 (KB) [µg/mL]
1 | C=C[C@@H]1CC[C@@H]2[C@]3(CC[C@]4(C)[C@@H]([C@H](C)[C@H]5CC=C(C)C(=O)O5)CC[C@@]24C)C[C@]13CCC(=O)O [SINOCALYCANCHINENSIN D] | 16.7 (≈ 36.7 µM) | 25.6 (≈ 56.3 µM) | 26.4 (≈ 58.1 µM) | 7 (≈ 15.4 µM) | 39.2 (≈ 86.2 µM) | 31.7 (≈ 69.7 µM)
2 | C=C[C@@H]1CC[C@@H]2[C@]3(CC[C@]4(C)[C@@H]([C@H](C)CC/C=C(/C)C(=O)O)CC[C@@]24C)C[C@]13CCC(=O)OC [SINOCALYCANCHINENSIN B] | 16.5 (≈ 35.1 µM) | 18.9 (≈ 40.2 µM) | 22.2 (≈ 47.2 µM) | 17.6 (≈ 37.4 µM) | 35.7 (≈ 75.8 µM) | 20.9 (≈ 44.4 µM)
3 | C=C[C@@H]1CC[C@@H]2[C@]3(CC[C@]4(C)[C@@H]([C@H](C)CC/C=C(/C)C(=O)O)CC[C@@]24C)C[C@]13CCC(=O)O [SINOCALYCANCHINENSIN A] | 29.9 (≈ 65.5 µM) | 33.4 (≈ 73.1 µM) | 30.4 (≈ 66.6 µM) | 38.9 (≈ 85.2 µM) | 61.6 (≈ 135 µM) | 30.7 (≈ 67.2 µM)
4 | C=C[C@@H]1CC[C@@H]2[C@]3(CC[C@]4(C)[C@@H]([C@H](C)CC/C=C(/C)C(=O)O)CC[C@@]24C)C[C@]13CCC(=O)OC/C=C(\C)CCC[C@H](C)CCC[C@H](C)CCCC(C)C [SINOCALYCANCHINENSIN C] | > 100 | > 100 | > 100 | – | > 100 | > 100
5 | COC(=O)[C@@H](C)[C@@H]1CC[C@@H]2[C@]3(CC[C@]4(C)[C@@H]([C@H](C)CC/C=C(/C)C(=O)O)CC[C@@]24C)C[C@]13CCOC(C)=O [SINOCALYCANCHINENSIN F] | 13.2 (≈ 24.9 µM) | 17.5 (≈ 33 µM) | 21.7 (≈ 40.9 µM) | 19.5 (≈ 36.7 µM) | 33.8 (≈ 63.7 µM) | 16.6 (≈ 31.3 µM)
6 | C=C[C@@H]1CC[C@@H]2[C@]3(CC[C@]4(C)[C@@H]([C@H](C)[C@H]5CC=C(C)C(=O)O5)CC[C@@]24C)C[C@]13CCC(=O)OC [SINOCALYCANCHINENSIN E] | 22.4 (≈ 47.8 µM) | 1.51 (≈ 3.22 µM) | 49.2 (≈ 105 µM) | 20.5 (≈ 43.7 µM) | > 100 | 62.2 (≈ 133 µM)
7 | C/C(=C\CC[C@@H](C)[C@H]1CC[C@@]2(C)[C@@H]3CC[C@H]4[C@H](C)C(=O)CC[C@@]45C[C@@]35CC[C@]12C)C(=O)O [SINOCALYCANCHINENSIN H] | 14.8 (≈ 33.6 µM) | 17.2 (≈ 39 µM) | 18.8 (≈ 42.7 µM) | 19.4 (≈ 44 µM) | 18.6 (≈ 42.2 µM) | 18.6 (≈ 42.2 µM)
8 | C/C(=C/CC[C@@H](C)[C@H]1CC[C@@]2(C)[C@@H]3CC[C@H]4[C@H](C)C(=O)CC[C@@]45C[C@@]35CC[C@]12C)C(=O)O [SINOCALYCANCHINENSIN G] | 14.8 (≈ 33.6 µM) | 21.4 (≈ 48.6 µM) | 21.6 (≈ 49 µM) | 7.3 (≈ 16.6 µM) | 23.7 (≈ 53.8 µM) | 19.9 (≈ 45.2 µM)
9 | COc1cccc2c1C(=O)c1c(O)c3c(c(O)c1C2=O)C[C@@](O)(C(C)=O)C[C@@H]3O[C@H]1C[C@H](N)[C@H](O)[C@H](C)O1 [DAUNORUBICIN] | 1.49 (≈ 2.82 µM) | 11.6 (≈ 22 µM) | 7.9 (≈ 15 µM) | 8.5 (≈ 16.1 µM) | 0.033 (≈ 0.0626 µM) | 0.45 (≈ 0.853 µM)
